Assay results: ChEMBL document CHEMBL4364295, “Discovery of a First-in-Class Receptor Interacting Protein 2 (RIP2) Kinase Specific Clinical Candidate, 2-((4-(Benzo[d]thiazol-5-ylamino)-6-(tert-butylsulfonyl)quinazolin-7-yl)oxy)ethyl Dihydrogen Phosphate, for the Treatment of Inflammatory Diseases” (J Med Chem, 2019)
pIC50: −log10 of the molar value.

How the values were obtained:
[1] = Clearance in rat hepatocytes; assay type: ADME, cell-based, Hepatocyte
Intestinal mucosa [2] = assay: Antiinflammatory activity in ulcerative colitis patient derived inflamed intestinal mucosa assessed as reduction in IL6 production measured after overnight incubation by immunoassay; assay type: functional, tissue-based; settings: Homo sapiens
[3] = Oral bioavailability in Gottingen minipig at 1 mg/kg by LC/MS/MS analysis; assay type: ADME, organism-based, Sus scrofa; settings: pig, in vivo
[4] = target: Tyrosine-protein kinase ABL2 (Homo sapiens) (UniProt P42684); assay: Inhibition of human ABL2 at 1 uM using EAIYAAPFAKKK as substrate in presence of [gamma-33P]ATP relative to control
Chain of Tyrosine-protein kinase ABL2 (Homo sapiens) (P42684 whole entry): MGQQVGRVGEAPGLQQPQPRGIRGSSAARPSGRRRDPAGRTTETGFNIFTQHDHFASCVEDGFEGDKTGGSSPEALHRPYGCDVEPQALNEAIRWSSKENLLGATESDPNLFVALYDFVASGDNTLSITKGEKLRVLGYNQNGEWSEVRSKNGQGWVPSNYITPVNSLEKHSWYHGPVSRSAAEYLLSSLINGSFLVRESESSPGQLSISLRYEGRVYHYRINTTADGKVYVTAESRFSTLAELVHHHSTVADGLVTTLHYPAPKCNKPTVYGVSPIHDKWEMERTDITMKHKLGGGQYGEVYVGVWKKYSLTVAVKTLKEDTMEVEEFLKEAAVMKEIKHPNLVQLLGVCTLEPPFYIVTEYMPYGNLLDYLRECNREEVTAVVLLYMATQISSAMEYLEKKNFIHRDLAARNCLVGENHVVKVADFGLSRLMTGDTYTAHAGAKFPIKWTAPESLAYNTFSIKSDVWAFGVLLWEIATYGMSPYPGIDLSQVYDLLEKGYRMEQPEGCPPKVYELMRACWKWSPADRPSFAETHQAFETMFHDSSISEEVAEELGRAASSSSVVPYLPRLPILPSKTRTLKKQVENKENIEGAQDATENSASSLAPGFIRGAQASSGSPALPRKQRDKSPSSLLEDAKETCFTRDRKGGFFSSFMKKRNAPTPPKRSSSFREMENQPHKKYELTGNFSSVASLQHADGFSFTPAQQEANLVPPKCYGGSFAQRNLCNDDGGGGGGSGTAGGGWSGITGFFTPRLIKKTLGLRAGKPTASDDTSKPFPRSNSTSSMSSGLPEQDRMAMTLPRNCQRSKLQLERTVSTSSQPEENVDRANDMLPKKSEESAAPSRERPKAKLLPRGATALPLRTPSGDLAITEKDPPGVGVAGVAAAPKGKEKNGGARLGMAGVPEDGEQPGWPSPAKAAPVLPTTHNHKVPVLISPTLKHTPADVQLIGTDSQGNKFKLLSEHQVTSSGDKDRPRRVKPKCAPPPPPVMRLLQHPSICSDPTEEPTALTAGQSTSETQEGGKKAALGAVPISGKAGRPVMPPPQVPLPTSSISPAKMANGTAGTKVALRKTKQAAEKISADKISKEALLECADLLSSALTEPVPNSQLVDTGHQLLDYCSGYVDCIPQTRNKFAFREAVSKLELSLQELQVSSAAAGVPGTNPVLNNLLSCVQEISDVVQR

Intestinal mucosa [5] = assay: Antiinflammatory activity in crohn's disease patient derived inflamed intestinal mucosa assessed as reduction in IL6 production measured after overnight incubation by immunoassay; assay type: functional, tissue-based; settings: Homo sapiens
[6] = Unbound fraction in rat blood; assay type: ADME, tissue-based
Toll-like receptor 4 = Toll-like receptor 4 (Homo sapiens, UniProt O00206); assay: Inhibition of TLR4 in human monocytes assessed as reduction in LPS-induced TNFalpha production; assay type: cell-based
Chain of Toll-like receptor 4 (O00206 whole entry): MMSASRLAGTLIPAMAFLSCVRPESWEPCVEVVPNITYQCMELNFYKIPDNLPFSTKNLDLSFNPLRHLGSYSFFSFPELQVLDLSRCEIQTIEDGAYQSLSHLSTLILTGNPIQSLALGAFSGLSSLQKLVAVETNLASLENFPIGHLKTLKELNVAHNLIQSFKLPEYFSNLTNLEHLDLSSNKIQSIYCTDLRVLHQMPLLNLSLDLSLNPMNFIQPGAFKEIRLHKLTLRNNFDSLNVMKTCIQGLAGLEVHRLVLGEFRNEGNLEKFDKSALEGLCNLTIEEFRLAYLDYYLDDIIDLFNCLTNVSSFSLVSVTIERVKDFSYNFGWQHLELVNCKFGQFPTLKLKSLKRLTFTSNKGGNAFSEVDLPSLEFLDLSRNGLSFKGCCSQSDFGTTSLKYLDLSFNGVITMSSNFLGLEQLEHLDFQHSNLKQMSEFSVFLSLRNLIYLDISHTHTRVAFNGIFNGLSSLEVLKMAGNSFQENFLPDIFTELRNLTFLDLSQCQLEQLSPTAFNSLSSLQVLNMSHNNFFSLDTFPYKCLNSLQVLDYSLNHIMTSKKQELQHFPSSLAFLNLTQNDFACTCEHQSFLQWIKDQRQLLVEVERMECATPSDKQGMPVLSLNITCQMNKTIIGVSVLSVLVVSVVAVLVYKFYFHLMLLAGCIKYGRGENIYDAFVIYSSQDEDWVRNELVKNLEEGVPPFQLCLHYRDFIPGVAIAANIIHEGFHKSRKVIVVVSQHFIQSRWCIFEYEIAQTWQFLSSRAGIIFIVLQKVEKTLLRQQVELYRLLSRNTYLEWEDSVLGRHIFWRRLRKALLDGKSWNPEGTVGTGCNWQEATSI

Toll-like receptor 7 = target: T1, Toll-like receptor 7 (Homo sapiens, UniProt Q9NYK1); assay: Inhibition of TLR7 in human monocytes assessed as reduction in gardiquimod-induced IL8 production; assay type: cell-based
T1 sequence (Q9NYK1 whole entry): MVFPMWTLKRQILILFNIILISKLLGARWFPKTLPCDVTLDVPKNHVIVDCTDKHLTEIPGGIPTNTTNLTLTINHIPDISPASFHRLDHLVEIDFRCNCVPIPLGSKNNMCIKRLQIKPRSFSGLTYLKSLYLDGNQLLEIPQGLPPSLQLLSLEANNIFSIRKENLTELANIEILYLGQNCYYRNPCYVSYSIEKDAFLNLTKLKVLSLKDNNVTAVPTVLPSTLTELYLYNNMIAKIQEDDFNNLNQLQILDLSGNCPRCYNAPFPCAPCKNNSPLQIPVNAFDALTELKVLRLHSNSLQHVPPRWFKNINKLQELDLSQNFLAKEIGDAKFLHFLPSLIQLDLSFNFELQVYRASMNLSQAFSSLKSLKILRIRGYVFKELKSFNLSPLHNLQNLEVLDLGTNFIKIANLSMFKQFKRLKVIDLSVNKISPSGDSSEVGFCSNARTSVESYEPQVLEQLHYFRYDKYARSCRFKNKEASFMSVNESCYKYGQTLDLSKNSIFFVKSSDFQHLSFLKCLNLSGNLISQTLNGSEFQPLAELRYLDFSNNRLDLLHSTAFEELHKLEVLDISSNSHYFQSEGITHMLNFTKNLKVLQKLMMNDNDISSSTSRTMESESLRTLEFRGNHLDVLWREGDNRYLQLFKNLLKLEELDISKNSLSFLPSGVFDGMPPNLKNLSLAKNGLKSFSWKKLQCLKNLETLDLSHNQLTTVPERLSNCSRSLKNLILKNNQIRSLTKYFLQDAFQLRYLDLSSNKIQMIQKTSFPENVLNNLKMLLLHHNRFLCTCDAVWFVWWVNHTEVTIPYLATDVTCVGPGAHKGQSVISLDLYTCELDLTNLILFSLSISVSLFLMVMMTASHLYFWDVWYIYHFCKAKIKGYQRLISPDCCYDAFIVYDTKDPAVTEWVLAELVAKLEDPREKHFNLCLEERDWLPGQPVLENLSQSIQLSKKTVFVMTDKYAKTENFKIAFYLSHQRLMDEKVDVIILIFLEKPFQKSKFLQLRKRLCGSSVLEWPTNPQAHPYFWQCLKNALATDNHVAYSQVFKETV

[7] = target: Receptor-interacting serine/threonine-protein kinase 2 (Homo sapiens, UniProt O43353); assay: Inhibition of RIPK2 in human whole blood assessed as reduction in MDP-induced TNFalpha production preincubated for 30 mins followed by MDP-stimulation and measured after 6 hrs by immunoassay; assay type: tissue-based
Chain of Receptor-interacting serine/threonine-protein kinase 2 (O43353 whole entry): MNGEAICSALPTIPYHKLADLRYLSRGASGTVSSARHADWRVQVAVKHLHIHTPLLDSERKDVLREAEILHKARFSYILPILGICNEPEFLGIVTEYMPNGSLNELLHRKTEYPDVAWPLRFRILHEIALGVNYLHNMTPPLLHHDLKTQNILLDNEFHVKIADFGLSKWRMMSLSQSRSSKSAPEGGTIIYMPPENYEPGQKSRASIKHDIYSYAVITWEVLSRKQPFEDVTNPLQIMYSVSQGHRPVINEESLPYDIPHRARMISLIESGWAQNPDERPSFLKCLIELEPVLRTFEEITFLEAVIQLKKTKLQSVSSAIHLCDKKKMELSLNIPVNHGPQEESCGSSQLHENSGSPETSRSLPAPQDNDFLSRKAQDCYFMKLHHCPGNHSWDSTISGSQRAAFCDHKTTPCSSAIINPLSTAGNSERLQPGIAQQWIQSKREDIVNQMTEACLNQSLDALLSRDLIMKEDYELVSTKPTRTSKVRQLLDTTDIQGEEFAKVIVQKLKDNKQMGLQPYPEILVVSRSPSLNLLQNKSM

[8] = Prodrug conversion in Sprague-Dawley rat intestine assessed as 2-((4-(Benzo[d]thiazol-5-ylamino)-6-(tert-butylsulfonyl)quinazolin-7-yl)oxy)ethanol formation at 2 mg/kg, po or 0.5 mg/kg, iv measured at 15 to 120 mins post dose; assay type: ADME, organism-based; settings: in vivo
[9] = Prodrug conversion in rat hepatocytes assessed as dephosphorylation at 20 uM measured after 4 hrs; assay type: ADME, cell-based, Hepatocyte
[10] = Terminal half life in Gottingen minipig assessed as 2-((4-(Benzo[d]thiazol-5-ylamino)-6-(tert-butylsulfonyl)quinazolin-7-yl)oxy)ethanol level at 2 mg/kg, po or 1 mg/kg, iv by LC/MS/MS analysis; assay type: ADME, organism-based, Sus scrofa; settings: pig, in vivo
[11] = Half life in rat blood; assay type: ADME, tissue-based
[12] = Prodrug conversion in human hepatocytes assessed as 2-((4-(Benzo[d]thiazol-5-ylamino)-6-(tert-butylsulfonyl)quinazolin-7-yl)oxy)ethanol formation at 20 uM measured after 4 hrs; assay type: ADME, cell-based, Hepatocyte
[13] = Volume of distribution at steady state in Sprague-Dawley rat assessed as 2-((4-(Benzo[d]thiazol-5-ylamino)-6-(tert-butylsulfonyl)quinazolin-7-yl)oxy)ethanol level at 2 mg/kg, po or 1.1 mg/kg, iv by LC/MS/MS analysis; assay type: ADME, organism-based; settings: in vivo

With CC(C)(C)S(=O)(=O)c1cc2c(Nc3ccc4scnc4c3)ncnc2cc1OCCO the CLH [1] was less than 0.48 mL/min/g, the Activity (Intestinal mucosa [2]) was “Dose-dependent effect” and the pIC50 (Intestinal mucosa [2]) was 8.00. For the same compound, the F [3] was 26%, the inhibition [4] was 70 to 90% and the Activity (Intestinal mucosa [5]) was “Dose-dependent effect”. The pIC50 (Intestinal mucosa [5]) was 8.00, the fraction unbound [6] was 0.11 and the pIC50 (Toll-like receptor 4) was less than 5.00. For the same compound, the pIC50 (Toll-like receptor 7) was less than 5.00 and the pIC50 [7] was 7.59.
With CC(C)(C)S(=O)(=O)c1cc2c(Nc3ccc4scnc4c3)ncnc2cc1OCCOP(=O)(O)O.[CaH2] the Drug metabolism [8] was “Metabolite_Detected”, the Drug metabolism [9] was “Metabolite_Detected” and the “beta t1/2” value [10] was 252 min. The half-life [11] was 35 min, the Drug metabolism [12] was “Metabolite_Detected” and the Vdss [13] was 2.1 L/kg.
